These results are taken from ChEMBL document CHEMBL1150396, “New PPARgamma ligands based on 2-hydroxy-1,4-naphthoquinone: computer-aided design, synthesis, and receptor-binding studies” (Bioorg Med Chem Lett, 2008).

The term IC50 denotes the concentration that inhibits the measured activity by half. A high value points to lower potency.

For the first assay, the target named is T1, Peroxisome proliferator-activated receptor gamma (Rattus norvegicus, UniProt O88275).
T1 sequence (O88275 whole entry): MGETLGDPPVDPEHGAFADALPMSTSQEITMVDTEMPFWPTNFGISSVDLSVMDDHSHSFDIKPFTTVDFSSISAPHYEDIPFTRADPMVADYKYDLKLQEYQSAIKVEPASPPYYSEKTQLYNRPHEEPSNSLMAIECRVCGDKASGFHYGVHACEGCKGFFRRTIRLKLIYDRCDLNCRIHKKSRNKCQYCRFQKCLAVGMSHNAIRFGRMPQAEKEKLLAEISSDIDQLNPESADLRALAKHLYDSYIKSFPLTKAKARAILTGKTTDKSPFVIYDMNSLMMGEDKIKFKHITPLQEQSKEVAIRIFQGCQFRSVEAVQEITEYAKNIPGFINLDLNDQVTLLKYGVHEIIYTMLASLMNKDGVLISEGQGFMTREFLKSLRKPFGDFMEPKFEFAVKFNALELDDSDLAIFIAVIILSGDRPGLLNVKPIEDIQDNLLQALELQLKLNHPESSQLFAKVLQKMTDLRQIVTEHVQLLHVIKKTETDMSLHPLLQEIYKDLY
Briefly: Displacement of [3H]rosigliatzone from PPARgamma in rat adipocytes. Format: cell-based. (In a radioligand displacement assay an active substance lowers the binding of a labelled ligand.)
In the case of `CCc1ccc(CCOc2ccc(CC3SC(=O)NC3=O)cc2)nc1` (centres undefined) [PIOGLITAZONE], the IC50 stood at 0.7 µM. Same read-out and setting: under `COc1ccc(OCCOc2ccc(CC3=C(O)C(=O)c4ccccc4C3=O)cc2)cc1` stands 56.2 µM. Same read-out and setting: under `O=C1C(O)=C(Cc2ccc(OCc3ccccc3)cc2)C(=O)c2ccccc21` stands 3.6 µM. Still for that read-out and setting: the value for `N#Cc1ccc(OCCOc2ccc(CC3=C(O)C(=O)c4ccccc4C3=O)cc2)cc1` was 1.9 µM; that for `O=C1C(O)=C(Cc2ccc(OCc3ccccc3F)cc2)C(=O)c2ccccc21` was 0.2 µM.

The next assay has as its target T2, Peroxisome proliferator-activated receptor gamma (Rattus norvegicus) (UniProt O88275).
T2 sequence (whole entry): T1 sequence (O88275 whole entry)
Nature of the assay: Displacement of [3H]rosigliatzone from PPARgamma in rat adipocytes at 0.1 uM. Format: cell-based.
As for `O=C1C(O)=C(Cc2ccc(OCCOc3cccc4ccccc34)cc2)C(=O)c2ccccc21`, the Activity is below 20%. Still for that read-out and setting: under `O=C1C(O)=C(Cc2ccc(OCCOc3ccc4c(c3)CCC4)cc2)C(=O)c2ccccc21` stands below 20%. Still for that read-out and setting: the value for `Cc1ccc(OCCOc2ccc(CC3=C(O)C(=O)c4ccccc4C3=O)cc2)cc1` was below 20%. Still for that read-out and setting: the value for `O=C1C(O)=C(Cc2ccc(OCCOc3ccc(Cl)cc3)cc2)C(=O)c2ccccc21` was below 20%.
